Measured values reported in patent US20250114350A1, “INHIBITORS OF […] AS ANTIFUNGAL AGENTS” (Regents of the University of Minnesota, priority 2023, published 2025).
In brackets after ≈: the same amount, converted by molar mass. Where two headings read alike, the source gives them in different places.

Experiments:
[1] = biological target: CnFTase (C. neoformans farnesyl transferase, α/β heterodimer) (Cryptococcus neoformans, UniProt J9VSJ6+T2BPA1); assay: CnFTase activity assay: farnesylation of a dansylated (fluorescent) peptide, inhibitor concentration giving half-maximal enzyme rates at 1 μM FPP (1μMIC50); details: read-out: CnFTase IC50 (1μMIC50), condition A: 20 nM CnFTase, dansyl-GCVVM 0.62 μM, Tris-HCl pH 7.5, ZnCl2 12.5 μM, 2.5% DMSO, room temperature, triplicate
Chain of CnFTase (C. neoformans farnesyl transferase, α/β heterodimer) (J9VSJ6 entry or part of it): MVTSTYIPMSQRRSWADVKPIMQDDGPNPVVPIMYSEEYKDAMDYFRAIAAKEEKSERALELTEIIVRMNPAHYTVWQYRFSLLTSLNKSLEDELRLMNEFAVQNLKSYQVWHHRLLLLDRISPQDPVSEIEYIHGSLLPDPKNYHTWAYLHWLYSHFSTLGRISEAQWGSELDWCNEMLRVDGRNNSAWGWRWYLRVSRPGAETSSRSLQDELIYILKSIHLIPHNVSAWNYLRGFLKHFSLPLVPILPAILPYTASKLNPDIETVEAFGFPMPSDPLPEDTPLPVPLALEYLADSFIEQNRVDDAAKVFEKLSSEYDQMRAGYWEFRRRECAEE
Chain of CnFTase (C. neoformans farnesyl transferase, α/β heterodimer) (T2BPA1 entry or part of it): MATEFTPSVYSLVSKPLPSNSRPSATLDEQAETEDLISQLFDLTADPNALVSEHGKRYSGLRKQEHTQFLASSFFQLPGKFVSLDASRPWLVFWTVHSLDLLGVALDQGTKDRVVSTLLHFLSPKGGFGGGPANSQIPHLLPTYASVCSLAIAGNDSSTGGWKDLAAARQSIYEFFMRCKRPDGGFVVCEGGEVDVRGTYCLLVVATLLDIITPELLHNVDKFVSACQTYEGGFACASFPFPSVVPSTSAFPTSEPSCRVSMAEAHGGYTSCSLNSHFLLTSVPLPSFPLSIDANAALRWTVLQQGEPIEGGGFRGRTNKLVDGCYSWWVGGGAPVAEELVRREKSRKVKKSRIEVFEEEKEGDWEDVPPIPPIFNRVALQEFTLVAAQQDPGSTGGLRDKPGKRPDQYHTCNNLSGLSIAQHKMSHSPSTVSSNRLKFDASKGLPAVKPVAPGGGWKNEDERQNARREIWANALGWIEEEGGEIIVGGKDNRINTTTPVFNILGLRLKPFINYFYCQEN
Method: (§1) CnFTase activity assay. […] Final CnFTase concentrations (from 5× or 10× stocks in 20 mM Tris-HCl pH7.5, 20 mM NaCl, 5 μM ZnCl2, 1 mM TCEP, 1 mg/mL BSA): A, 20 nM; B: 4.4, 6.7, 10 nM triplets. […] For experiments that included phosphate, pH 7.5 stock was added to the desired final concentration. […] Data for determining ^1μMIC50 values (condition A) was collected in triplicate. Initial rates, vo, were extracted by fitting a straight line to the initial to tmax seconds of the reaction progress curves, where tmax values were selected by inspection and entered into curator tables for automated analysis. 1μMIC50 were determined by fitting a single-site Langmuir ligand-binding isotherm to the dependence of vo on inhibitor concentration (2, see below). All other experiments (condition B) all other experiments (condition B) used three different CnFTase concentrations, collecting progress curves as a function of FPP, inhibitor, and phosphate concentrations. The resulting triplet of progress curves was used to extract vo values automatically by minimizing
If x is an inhibitor concentration, then IC50=Ka^−1. […] In general, baseline signals, σ, (α or β) can be constant, or linear functions of ligand concentration x

C. neoformans [2] = assay: Minimum inhibitory concentration (MIC): disc diffusion and broth microdilution; details: for MIC: Cryptococcus neoformans
Method: Antifungal activity was determined by measuring minimum inhibitory concentrations (MIC) of C. neoformans by two methods: a solid medium disc diffusion assay and broth microdilution assay.
Disc diffusion assay. Overnight cultures of C. neoformans (about 18 hours) were normalized to OD600 0.6, diluted 1/10, and 200 μL of each sample were spread onto either a YPD or YPGal (yeast extract-peptone medium with 3% galactose) plate using sterile glass beads. After drying, 10 μL of compound or solvent control (DMSO) was added to sterile 6 mm filter discs on each plate. Plates were incubated for 48 hours at 37° C.
Minimum inhibitory concentration (MIC) assays. C. neoformans: Overnight cultures (˜18 h) of C. neoformans strains incubated in YPD medium were diluted to 500 cells/ml in RPMI medium buffered with MOPS. Cells were aliquoted (200 μL/well) in black-wall, clear-bottom 96-wells plates (Greiner). Compound stock solutions in DMSO ranged from 9 μM to 20 mM, and added to 200 μL cell suspension aliquoted in 96-well plates. Final aqueous concentrations ranged from 200 μM to 0.09 μM, limiting DMSO to 1%. After 48-hr incubation at 37° C. or 30° C. for 48 h, 10% AlamarBlue (BioRad) was added. The end-point fluorescence intensity of reduced AlamarBlue was measured using a fluorescence plate reader (FLUORStar Optima plate reader) at the time point the indicator turned from blue to pink in healthy control cells.^51 Assays were performed in duplicate.

[3] = system: C. neoformans FTase (CnFTase); assay: CnFTase activity assay, farnesylation of a fluorescent (dansylated) peptide, 1μMIC50; type: biochemical, Cryptococcus neoformans; details: for change of affinity relative to the comparator analogue (cf.): pairwise comparison of analogues differing in one R group
Method: The library of 23 compounds contained leads with 60- to 150-fold enhanced ^1μMIC50 values.
CnFTase activity assay. The farnesyl transferase activity was measured by measuring the time dependence of the fluorescence emission intensity increase due to farnesylation of a dansylated peptide (Cassidy, P. B, et al., Methods Enzymol, 1995, 250, 30-43). Measurements were taken at room temperature in a 96-well black polystyrene, half area, flat bottom, non-binding surface plate using a SpectraMax M5e plate reader (excitation wavelength, 340 nm; emission wavelength 525 nm; emission high-pass filter, 455 nm). […] Final CnFTase concentrations (from 5× or 10× stocks in 20 mM Tris-HCl pH7.5, 20 mM NaCl, 5 μM ZnCl2, 1 mM TCEP, 1 mg/mL BSA): A, 20 nM; B: 4.4, 6.7, 10 nM triplets. […] For experiments that included phosphate, pH 7.5 stock was added to the desired final concentration. Data was analyzed using Python scripts for the Biomolecular Computing (BMC) package, included in the Dryad electronic repository. Data for determining ^1μMIC50 values (condition A) was collected in triplicate. Initial rates, vo, were extracted by fitting a straight line to the initial to tmax seconds of the reaction progress curves, where tmax values were selected by inspection and entered into curator tables for automated analysis. 1μMIC50 were determined by fitting a single-site Langmuir ligand-binding isotherm to the dependence of vo on inhibitor concentration (2, see below). All other experiments (condition B) […] used three different CnFTase concentrations, collecting progress curves as a function of FPP, inhibitor, and phosphate concentrations. The resulting triplet of progress curves was used to extract vo values automatically by minimizing
Single-site binding isotherms. Signals, S, resulting from a binding reaction were fit to
where α and β are the baselines associated with the apo-protein and its ligand complex, respectively, and y fractional occupancy of the binding site
If x is an inhibitor concentration, then IC50=Ka^−1. For Michaelis-Menten analysis 2 is reduced to a standard form (Bahar, I.; Jernigan, R. L.; Dill, K. A. Protein Actions, principles & modeling. Garland Science: 2017) with S=vo (initial rates), α=0, β=Vmax (maximal velocity), and KM=Ka^−1 (substrate dissociation constant). In general, baseline signals, σ, (α or β) can be constant, or linear functions of ligand concentration x

CnFTase = CnFTase (Cryptococcus neoformans, UniProt J9VSJ6+T2BPA1); assay: CnFTase steady-state kinetics fit to competitive/uncompetitive/mixed inhibition models
Chain of CnFTase (J9VSJ6 entry or part of it): as the sequence (J9VSJ6 entry or part of it) above
Chain of CnFTase (T2BPA1 entry or part of it): as the sequence (T2BPA1 entry or part of it) above
Method: as §1
where χk^2 is the squared difference of the calculated and observed emissions in the k^th iteration of the minimizer, fi the initial fraction (constrained in the interval [0.5,1]) of the T time points of the progress curve, Di the dilution factor of the i^th progress curve (0.44:0.66:1 for condition B), S0ik the fluorescence emission intensity of the i^th progress curve at t=0 at the k^th (this value is refined individually using a one-dimensional golden section search^52 with fi and v0 values of the k−1 iteration), and ^obsSji, the observed intensity of the i^th progress curve at the j^th time point. The target function 1 is minimized using conjugate gradients with vo and fi as the degrees of freedom. The resulting rates were then fit to binding polynomials describing the inhibition mechanism (5-13, see below).
Binding polynomials for inhibition models. The initial steady-state rates of a reaction involving a single-substrate x, and inhibitor y are given by
Three binding polynomials were used:
where Ka, KC, and KU are the affinities of the enzyme for substrate, competitive inhibitor, and uncompetitive inhibitor, respectively.
Solvers for non-ideal conditions. In non-ideal conditions 9 is false, and the total protein concentration needs to be included as a degree of freedom, requiring the roots of the following multivariate polynomial to be found (see below for derivation):

C. neoformans [4] = details: C. neoformans; Bongomin et al. 2018; cited from earlier work

Row | SMILES | IC50 [1] [µM] | change of affinity relative to the comparator analogue (cf.) [3] | other results
1 | CCCC[C@H]1CN(c2cccc(Cl)c2)C(=O)CN1Cc1cncn1Cc1ccc(Br)cc1 [Compound 2b, (S)-4-((1-(4-Bromobenzyl)-1H-imidazol-5-yl)methyl)-5-butyl-1-(3-chlorophenyl)piperazin-2-one] | 1.1 ± 0.78 |  | 
2 | CCCC[C@H]1CN(c2cccc(Cl)c2)C(=O)CN1Cc1cncn1Cc1ccc(Cl)cc1 [Compound 2c, (S)-5-Butyl-4-((1-(4-chlorobenzyl)-1H-imidazol-5-yl)methyl)-1-(3-chlorophenyl)piperazin-2-one] | 1.6 ± 0.8 |  | 
3 | CCCC[C@H]1CN(c2cccc(OC(F)(F)F)c2)C(=O)CN1Cc1cncn1Cc1ccc(C#N)cc1 [Compound 2d, (S)-4-((5-((2-butyl-5-oxo-4-(3-(trifluoromethoxy)-phenyl)piperazin-1-yl)methyl)-1H-imidazol-1-yl)methyl)benzonitrile] | 0.34 ± 0.22 |  | 
4 | CCCC[C@H]1CN(c2cccc(OC(F)(F)F)c2)C(=O)CN1Cc1cncn1Cc1ccc(F)cc1 [Compound 2g, (S)-5-butyl-4-((1-(4-fluorobenzyl)-1H-imidazol-5-yl)methyl)-1-(3-(trifluoromethoxy)phenyl)piperazin-2-one] | 0.71 ± 0.24 |  | 
5 | CCCC[C@H]1CN(c2cccc(OC(F)(F)F)c2)C(=O)CN1Cc1cncn1Cc1ccccc1 [Compound 2i, (S)-4-((1-Benzyl-1H-imidazol-5-yl)methyl)-5-butyl-1-(3-(trifluoromethoxy)phenyl)piperazin-2-one] | 1.9 ± 1.7 |  | 
6 | N#Cc1ccc(Cn2cncc2CN2CCN(c3cccc(OC(F)(F)F)c3)C(=O)C2)cc1 [Compound 2j, (S)-4-((5-((3-Oxo-4-(3-(trifluoromethoxy)phenyl)piperazin-1-yl)methyl)-1H-imidazol-1-yl)methyl)benzonitrile] | 2.7 ± 1.1 | had little effect or were slightly deleterious | 
7 | CCC[C@H]1CN(c2cccc(OC(F)(F)F)c2)C(=O)CN1Cc1cncn1Cc1ccc(Br)cc1 [Compound 2k, (S)-4-((1-(4-Bromobenzyl)-1H-imidazol-5-yl)methyl)-5-propyl-1-(3-(trifluoromethoxy)phenyl) piperazin-2-one] | 1.1 ± 0.51 | reduced affinity | MIC (C. neoformans [2]): 3 to 6 µM (≈ 1.65 to 3.31 µg/mL)
8 | CCCC[C@H]1CN(c2ccccc2)C(=O)CN1Cc1cncn1Cc1ccc(Br)cc1 [Compound 2m, (S)-4-((1-(4-Bromobenzyl)-1H-imidazol-5-yl)methyl)-5-butyl-1-phenylpiperazin-2-one] | 0.92 ± 0.51 |  | 
9 | CCCC[C@H]1CN(c2cccc(C)c2C)C(=O)CN1Cc1cncn1Cc1ccc(C#N)cc1 [Compound 2n, (S)-4-((5-((2-butyl-4-(2,3-dimethylphenyl)-5-oxopiperazin-1-yl)methyl)-1H-imidazol-1-yl)methyl)benzonitrile] | 2.2 ± 1.3 | had little effect or were slightly deleterious | 
10 | CCCC[C@H]1CN(c2cccc(OC(F)(F)F)c2)C(=O)CN1Cc1cncn1Cc1cccc(C#N)c1 [Compound 2o, (S)-3-((5-((2-Butyl-5-oxo-4-(3-(trifluoromethoxy)-phenyl)piperazin-1-yl)methyl)-1H-imidazol-1-yl)methyl)benzonitrile] | 0.74 ± 0.31 |  | 
11 | CCCC[C@H]1CN(c2cccc(OC(F)(F)F)c2)C(=O)CN1Cc1cncn1Cc1ccc(C#N)c(F)c1 [Compound 2q, (S)-4-((5-((2-Butyl-5-oxo-4-(3-(trifluoromethoxy)-phenyl)piperazin-1-yl)methyl)-1H-imidazol-1-yl)methyl)-2-fluorobenzonitrile] |  | 9 fold | improvement of 1μMIC50 over L-778,123 ([3]; 1 μM FPP, relative to L-778,123): 150 fold; antifungal activity (C. neoformans [2]; C. neoformans): barely exhibited antifungal activity; Ki (CnFTase): 0.004 µM; improvement of uncompetitive binding affinity in the H state (CnFTase; H state vs L state): ~10%; inhibition mode (CnFTase; with respect to FPP): purely uncompetitive inhibitor
12 | N#Cc1cc(Cn2cncc2CN2CCN(c3cccc(OC(F)(F)F)c3)C(=O)C2)ccc1F [Compound 2r, 2-Fluoro-5-((5-((3-oxo-4-(3-(trifluoromethoxy)phenyl)piperazin-1-yl)methyl)-1H-imidazol-1-yl)methyl)benzonitrile] | 0.55 ± 0.03 |  | 
13 | N#Cc1cc(Cn2cncc2CN2CCN(c3cccc(OC(F)(F)F)c3)C(=O)C2)ccc1Oc1ccccc1 [Compound 2v] | 0.32 ± 0.1 |  | 
14 | N#Cc1ccc(Cn2cncc2CN2CCN(c3cccc(OC(F)(F)F)c3)C(=O)C2)cc1Oc1ccccc1 [Compound 2w, 4-((5-((3-Oxo-4-(3-(trifluoromethoxy)phenyl)piperazin-1-yl)methyl)-1H-imidazol-1-yl)methyl)-2-phenoxybenzonitrile] | 2.6 ± 1.4 | did not alter affinities | 
15 | CCCCC[C@H]1CN(c2cccc(OC(F)(F)F)c2)C(=O)CN1Cc1cncn1Cc1ccc(Br)cc1 [Compound 21, (S)-4-((1-(4-Bromobenzyl)-1H-imidazol-5-yl)methyl)-5-pentyl-1-(3-(trifluoromethoxy)phenyl)piperazin-2-one] |  | showed little improvement | MIC (C. neoformans [2]): 3 to 6 µM (≈ 1.74 to 3.48 µg/mL)
16 | OC(Cn1cncn1)(Cn1cncn1)c1ccc(F)cc1F [fluconazole] |  |  | MIC (C. neoformans [4]): ≥ 8 mg/L

The remaining compounds from weak to strong by IC50 [1], led by results:

Row | IC50 [1] [µM] | change of affinity relative to the comparator analogue (cf.) [3] | SMILES | other results
17 | 0.28 ± 0.15 |  | CCCC[C@H]1CN(c2cccc(OC(F)(F)F)c2)C(=O)CN1Cc1cncn1Cc1ccc(C(F)(F)F)cc1 [Compound 2h, (S)-5-Butyl-1-(3-(trifluoromethoxy)phenyl)-4-((1-(4-(trifluoromethyl)benzyl)-1H-imidazol-5-yl)methyl)piperazin-2-one] | MIC (C. neoformans [2]): 3 to 6 µM (≈ 1.66 to 3.33 µg/mL)
18 | 0.26 ± 0.13 |  | CCCC[C@H]1CN(c2cccc(OC(F)(F)F)c2)C(=O)CN1Cc1cncn1Cc1ccc(Cl)cc1 [Compound 2e] | MIC (C. neoformans [2]): 3 to 6 µM (≈ 1.56 to 3.13 µg/mL)
19 | 0.21 ± 0.1 |  | CCCC[C@H]1CN(c2cccc(OC(F)(F)F)c2)C(=O)CN1Cc1cncn1Cc1ccc(Oc2ccccc2)c(C#N)c1 [Compound 2t, (S)-5-((5-((2-Butyl-5-oxo-4-(3-(trifluoromethoxy)phenyl)-piperazin-1-yl)methyl)-1H-imidazol-1-yl)methyl)-2-phenoxybenzonitrile] | 
20 | 0.18 ± 0.1 |  | CCCC[C@H]1CN(c2cccc(OC(F)(F)F)c2)C(=O)CN1Cc1cncn1Cc1ccc(F)c(C#N)c1 [Compound 2p, (S)-5-((5-((2-Butyl-5-oxo-4-(3-(trifluoromethoxy)phenyl)piperazin-1-yl)methyl)-1H-imidazol-1-yl)methyl)-2-fluorobenzonitrile] | 
21 | 0.16 ± 0.02 |  | CCCCC[C@H]1CN(c2cccc(OC(F)(F)F)c2)C(=O)CN1Cc1cncn1Cc1ccc(Br)cc1 [Compound 2l, (S)-4-((1-(4-Bromobenzyl)-1H-imidazol-5-yl)methyl)-5-pentyl-1-(3-(trifluoromethoxy)phenyl)piperazin-2-one] | 
22 | 0.15 ± 0.06 | did not alter affinities | CCCC[C@H]1CN(c2cccc(OC(F)(F)F)c2)C(=O)CN1Cc1cncn1Cc1ccc(C#N)c(Oc2ccccc2)c1 [Compound 2u, (S)-4-((5-((2-butyl-5-oxo-4-(3-(trifluoromethoxy)phenyl)-piperazin-1-yl)methyl)-1H-imidazol-1-yl)methyl)-2-phenoxybenzonitrile] | 
23 | 0.12 ± 0.04 | 20 fold | N#Cc1ccc(Cn2cncc2CN2CCN(c3cccc(OC(F)(F)F)c3)C(=O)C2)cc1F [Compound 2s, 2-Fluoro-4-((5-((3-Oxo-4-(3-(trifluoromethoxy)phenyl)piperazin-1-yl)methyl)-1H-imidazol-1-yl)methyl)benzonitrile] | 
24 | 0.1 ± 0.01 |  | CCCC[C@H]1CN(c2cccc(Cl)c2)C(=O)CN1Cc1cncn1Cc1ccc(C#N)cc1 [Compound 2a, (S)-4-((5-((2-Butyl-4-(3-chlorophenyl)-5-oxopiperazin-1-yl)methyl)-1H-imidazol-1-yl)methyl)benzonitrile] | 
